The text below walks through data of article PMC7957565 (Molecules, 2021).

One data set deals with T1, AChE (from electric eel) (Electrophorus electricus, UniProt O42275).
T1 construct: purchased Sigma-Aldrich
Briefly: biochemical. The following applies: eeAChE; for IC50: mean ± spread.

The target in data set [1] is butyrylcholinesterase (BuChE, from equine serum) (Equus caballus, UniProt P81908). Briefly: biochemical. Particulars: eqBuChE; mean ± spread.
Another data set concerns primary cortical neurons. Briefly: Neuroprotection against OGD/R injury, MTT cell viability. The following applies: Rattus norvegicus, Primary cortical neuron, compound 10 μM, control 100%, OGD/R group 40.4%, read-out: Cell viability (MTT) after OGD/R. It is filed as cell-based. The protocol:
The parental compounds Clau F and CZ-7 have remarkable neuroprotective effects. To further confirm whether the derivatives retain activity, an OGD/R model was performed in primary cortical neurons, and 3-(4,5-dimethylthiazol-2-yl)-2,5-diphenyltetrazolium bromide (MTT) assays were used to test cell viability. […]. According to the experimental results above, compound 6bd was selected as the candidate compound for the subsequent investigations.
[…]. All cell suspensions were grown in neurobasal/B27 medium with 100-U/mL penicillin and 100-μg/mL streptomycin. The cells were plated in poly-L-lysine (PLL, 0.1 mg/mL)-coated multiwell plates or chamber slides and maintained at 37 °C in a humidified atmosphere of 5% CO2 and 95% air. Seven day cultures were used for treatment. The treatment methods were similar to those used for PC12, but the concentrations of H2O2 and sodium dithionite were 100 μM and 2 mM, respectively.
Cell viability was determined by MTT assay. Cells were incubated with 5 mg/mL MTT (10 μL) at 37 °C for 4 h. The formazan crystals were dissolved, and absorbance was determined at 570 nm using a Microplate Reader (Thermo, Germany). The cell viability was expressed as a percentage of the optical density (OD) value of the control cultures.
Figure 2 Neuroprotective activity screening of 6aa–ad, 6ba–bf, 6ca–cd, and CZ-7 at 10 μM in primary cortical neurons induced by oxygen–glucose deprivation/reoxygenation (OGD/R). Neurons were exposed to […] sodium dithionite and reoxygenation. A 3-(4,5-dimethylthiazol-2-yl)-2,5-diphenyltetrazolium bromide (MTT) assay was used to test the cell viability. The absorbance of normal cells was regarded as 100%. Error bars represent the standard deviation. ### p < 0.001 vs. control; ** p < 0.05, *** p < 0.01 vs. model (means ± standard deviation, n = 6).

Details of data set [2]: method as in PMID 29202406. Particulars: cited from earlier work.
Data set [3] relates to ICR (Institute of Cancer Research) mice. Particulars: oral 1 g/kg dose; cited from earlier work.
The next data set is described as follows: in vitro. It is filed as in vitro ADME. Particulars: PAMPA-BBB. The protocol:
A blood–brain barrier (BBB) penetration assay in vitro is essential for anti-AD drug development. […] The compounds’ blood–brain barrier penetration was evaluated by using the parallel artificial membrane permeation assay (PAMPA) described by Di et al.. The two commercial drugs were purchased from Aladdin (China). Porcine brain lipid was obtained from Sigma (China). The donor microplate (polyvinylidene fluoride (PVDF) membrane, pore size 0.45 μm) and acceptor microplate were both from Millipore (China). The 96-well ultraviolet (UV) plate (COSTAR) was from Corning Incorporated (USA). The detailed procedure was described in [26, 27].
A general note: PAMPA measures passive passage across an artificial lipid membrane.

Data set [4] can be described thus: Singlet oxygen scavenging by ESR spectroscopy (TEMP, UVA light). It is filed as physicochemical. Particulars: 10^−2 mol/L compound, 5 × 10^−2 mol/L TEMP in DMSO, UVA light 1 min. The protocol:
Oxidative stress caused by reactive oxygen (for example, singlet oxygen and hydroxyl radical) is related to the death of neurons and the formation of intracellular Aβ oligomer. Drugs designed to prevent the formation or removal of free radicals in the brain are beneficial for AD. The main technique for detecting organic free radicals is electron spin resonance (ESR) spectroscopy. This technology can detect radical concentrations on the order of 10 nM or less under favorable conditions and has high sensitivity. Therefore, compound 6bd was tested for its ability to scavenge active oxygen by using ESR spectroscopy. For comparison, edaravone (Eda) was used as a reference.
ESR signals were recorded with a 10 mW incident microwave and […] field modulation of 1 G. The scan width was 150 G for 2, 2, 6, 6-tetramethylpiperidine (TEMP) experiments. All measurements were performed at room temperature (RT). Briefly, 5 × 10^−2 mol/L TEMP and 10^−2 mol/L 6bd or Eda were mixed in DMSO, and ESR signals were obtained after exposure to UVA light for 1 min.

butyrylcholinesterase (BuChE, from equine serum), sequence (P81908 whole entry): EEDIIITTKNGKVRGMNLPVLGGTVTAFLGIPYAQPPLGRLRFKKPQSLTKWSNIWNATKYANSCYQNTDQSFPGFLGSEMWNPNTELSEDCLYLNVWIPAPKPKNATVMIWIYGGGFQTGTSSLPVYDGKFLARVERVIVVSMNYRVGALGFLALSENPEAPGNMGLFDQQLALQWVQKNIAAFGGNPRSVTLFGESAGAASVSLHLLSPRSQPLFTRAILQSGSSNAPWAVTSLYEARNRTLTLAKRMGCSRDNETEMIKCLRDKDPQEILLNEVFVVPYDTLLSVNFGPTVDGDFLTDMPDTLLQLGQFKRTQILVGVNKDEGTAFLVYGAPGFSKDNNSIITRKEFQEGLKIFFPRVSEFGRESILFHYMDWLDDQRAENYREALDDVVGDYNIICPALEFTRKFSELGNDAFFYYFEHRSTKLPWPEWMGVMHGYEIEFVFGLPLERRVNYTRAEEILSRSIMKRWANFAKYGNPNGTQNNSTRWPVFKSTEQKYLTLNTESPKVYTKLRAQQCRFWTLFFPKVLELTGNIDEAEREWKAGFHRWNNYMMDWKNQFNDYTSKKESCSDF
T1 sequence (O42275 24-633): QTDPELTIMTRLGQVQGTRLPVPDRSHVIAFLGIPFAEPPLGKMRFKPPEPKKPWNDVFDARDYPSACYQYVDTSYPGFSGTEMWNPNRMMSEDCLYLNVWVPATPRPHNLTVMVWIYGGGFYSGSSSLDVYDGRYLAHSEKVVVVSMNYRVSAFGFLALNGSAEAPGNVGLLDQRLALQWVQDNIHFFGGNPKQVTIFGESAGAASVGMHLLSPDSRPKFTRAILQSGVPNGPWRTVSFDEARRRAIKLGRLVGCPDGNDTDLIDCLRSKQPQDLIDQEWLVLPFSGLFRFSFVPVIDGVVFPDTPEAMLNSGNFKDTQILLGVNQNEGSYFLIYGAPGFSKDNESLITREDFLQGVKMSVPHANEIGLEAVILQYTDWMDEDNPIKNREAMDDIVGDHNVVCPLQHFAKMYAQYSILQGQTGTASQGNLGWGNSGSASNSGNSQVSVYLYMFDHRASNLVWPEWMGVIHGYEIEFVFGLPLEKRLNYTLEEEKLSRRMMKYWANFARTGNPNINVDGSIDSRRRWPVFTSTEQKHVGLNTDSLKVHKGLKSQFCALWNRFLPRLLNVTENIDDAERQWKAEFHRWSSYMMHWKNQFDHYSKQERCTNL

Take `CC1(C)C=Cc2c(c(/C=C/C(=O)NCC3CCN(Cc4cccc(Cl)c4)CC3)cc3c2[nH]c2ccc(C(C)(C)C)cc23)O1` [Compound 6be, (E)-3-(8-(tert-Butyl)-3,3-dimethyl-3,11-dihydropyrano[3,2-a]carbazol-5-yl)-N-((1-(3-chlorobenzyl)piperidin-4-yl)methyl)acrylamide]: the half-inhibitory concentration (IC50) (commonly the concentration needed to halve the response being measured) against AChE (from electric eel) was determined as 1.69 µM; in data set [1], 6.36 ± 1.21 µM. Further, the viability at 10 µM in the data set on primary cortical neurons is 105%.
`Cc1cc2c([nH]c3ccc(C(C)(C)C)cc32)c2c1OC(C)(C)C=C2` [CZ-7, reference compound]: the inhibition (in general, the change of the read-out against control, counted positive when it falls) at 100 µM on AChE (from electric eel) (compound at 100 μM, read-out: AChE inhibition rate (%) in 100 μM) was 32.5 ± 6.52%. The molecule also returned a half-inhibitory concentration (IC50) in data set [1] of 59.5 ± 5.62 µM. For the same molecule, the viability at 10 µM in the data set on primary cortical neurons turned out to be 113%. In addition, the “Exposure in the brain relative to plasma” value in data set [2] is on record as 4.3 fold. The Acute toxicity finding result in data set [3] was “no toxic side effects”.
For the molecule `CC1(C)C=Cc2c(c(/C=C/C(=O)NCC3CCN(Cc4ccccc4F)CC3)cc3c2[nH]c2ccc(C(C)(C)C)cc23)O1` [Compound 6bb, (E)-3-(8-(tert-Butyl)-3,3-dimethyl-3,11-dihydropyrano[3,2-a]carbazol-5-yl)-N-((1-(2-fluorobenzyl)piperidin-4-yl)methyl)acrylamide], the IC50 was determined as 4.08 ± 0.12 µM against AChE (from electric eel) and 5.63 ± 0.31 µM in data set [1]. Also, the viability at 10 µM with primary cortical neurons is 109%.
For `CC1(C)C=Cc2c(c(/C=C/C(=O)NCC3CCN(Cc4ccc(Cl)cc4)CC3)cc3c2[nH]c2ccc(C(C)(C)C)cc23)O1` [Compound 6bf, (E)-3-(8-(tert-Butyl)-3,3-dimethyl-3,11-dihydropyrano[3,2-a]carbazol-5-yl)-N-((1-(4-chlorobenzyl)piperidin-4-yl)methyl)acrylamide] the same measures were 1.63 ± 0.3 µM, 12.1 ± 0.76 µM and 107%.
With `CC1(C)C=Cc2c(c(/C=C/C(=O)NCC3CCN(Cc4ccccc4Cl)CC3)cc3c2[nH]c2ccc(C(C)(C)C)cc23)O1` [Compound 6bd, (E)-3-(8-(tert-Butyl)-3,3-dimethyl-3,11-dihydropyrano[3,2-a]carbazol-5-yl)-N-((1-(2-chlorobenzyl)piperidin-4-yl)methyl)acrylamide], the results for the half-maximal inhibitory concentration (IC50) (on AChE (from electric eel); in data set [1]) were 4.34 ± 0.46 µM and 5.46 ± 0.61 µM, respectively. Moreover, the viability at 10 µM with primary cortical neurons was 126%. Also, the Brain penetration classification result in the data set “in vitro” was “good brain penetration”. In “in vitro” (means ± SD of three independent experiments, read-out: Permeability Pe, Experiment), the Papp was found to be 4.38 ± 0.05 ×10⁻⁶ cm/s. The “Singlet oxygen scavenging compared with edaravone (Eda)” value in data set [4] is “stronger effect”.
